Key:
nude mice = experiment: Hair patch assay for nude mice; assay type: in vivo; conditions: subcutaneous injection of epidermal and dermal cells with 50 μg/ml peptide, 30 days
Experimental: Skin was peeled off from 1 day-old C57BL/6 mouse and its epidermis was separated from the dermis by 10 mg/ml Dispase digestion at 4° C. for 2 days. Epidermis and dermis were cut into small pieces and digested at 37° C. in 0.05% Trypsin-EDTA for 15 minutes and then 20 mg/ml collagenase for 60 minutes. Epidermal cells and dermal cells were collected through filtration with 70 μm strainers and low-speed centrifugation.
2×10^7 epidermal cells and 1×10^8 dermal cells were subcutaneously injected into nude mice with ddH2O or Mucinhair peptide (50 μg/ml). After 30 days, mice were sacrificed and hair patch was excised and photographed. The excised skins were paraffin-embedded and tissues were sectioned and stained with hemmtoxylin and eosin (H&E).

dermal papilla cells = experiment: Cell proliferation assay (MTT); assay type: cell-based; conditions: rat dermal papilla cells, 50 μg/ml, quotient of MTT value vs 0 hour
Experimental: Dermal papilla cells were isolated from rat whiskers and cells were cultured in Dulbecco's modified Eagle's medium (Thermo Scientific, Barrington, Ill., USA) with 10% fetal bovine serum (Gibco, Grand Island, N.Y., USA) and penicillin/streptomycin (100 IU/[…]) in a humidified atmosphere containing 5% CO2 at 37° C. Dermal papilla cells at the 3rd passage were used for all of the following experiments.
2×10^3 dermal papilla cells were seeded in 96-well plates and incubated with Mucinhair peptide (50 μg/ml) or ddH2O for the indicated period. 10 μL of 5 mg/mL 3-(4,5-dimethyl-2-thiazolyl)-2,5-diphenyl-2H-tetrazolium bromide solution (MTT; Sigma) was added to each well and incubated at 37° C. for 4 hours. After which, 100 μL of 10% SDS in 0.01N HCl was added to dissolve the MTT formazan crystals. The resultant optical density was measured spectrophotometrically at dual wavelengths, 550 and 630 nm. The MTT value was obtained by subtracting the OD630 value from the OD550 value.
The term “proliferation rate” used herein is defined as a quotient of the MTT value calculated from cells treated for an indicated period and that calculated from cells treated for 0 hour.

Hair follicles = experiment: Hair follicle culture; assay type: cell-based; conditions: rat whisker hair follicles, 50 μg/ml, 20th day after treatment, vs ddH2O
Experimental: Hair follicles were isolated from 4 week-old rat whiskers and were maintained in Dulbecco's Modified Eagle Medium supplemented with 10% fetal bovine serum, 1% (v/v) antibiotic, and 250 ng/ml fungizone in 5% CO2 at 37° C. for 24 hours. Then, the hair follicles were treated with ddH2O or Mucinhair peptide (50 μg/ml). Medium was changed every 6 days and the hair shaft lengths were measured under a phase contrast microscope on the 20th day after the treatment.

Which results are given for NTSDPQKENRNTG [Mucinhair peptide]?
hair follicles in hypodermis (H&E) (nude mice): has neogenic hair follicles; region with hairs (nude mice; vs ddH2O): larger than that injected with ddH2O; proliferation rate (dermal papilla cells; treated for 48 hours): 2.26±0.23; proliferation rate (dermal papilla cells; treated for 96 hours): 3.31±0.21; hair shaft lengths (Hair follicles): longer than those grown with ddH2O treatment

From patent US20180064965A1, “PEPTIDE FOR PROMOTING HAIR GROWTH” (H&H GROUP CO., LTD., priority 2016, published 2018)
